Measured values from patent US20240238232A1, “COMPOSITIONS AND METHODS FOR THE REDUCTION OR TREATMENT OF INSULIN RESISTANCE AND METABOLIC CONDITIONS” (AXCELLA HEALTH INC., priority 2018, published 2024).

Tests used:
Type in all cases: in vivo
FATZO mouse model [1] = experiment: Liver fibrosis score and Sirius Red collagen staining in FATZO mice on WDF, Example 5; conditions: oral, 4 weeks, LIVRQNAC + G 3885 mg/kg, LRQNAC 2469 mg/kg, OCA 30 mg/kg/day
Description: (§1) NASH was induced in 60 male FATZO mice by a western diet (Research Diet #D12079B; fat 40% kcal, protein 17% kcal, carbohydrate 43% kcal) supplemented with 500 fructose in the drinking water (WDF) during a 16 week induction phase. Diets and water were available ad libitum. Littermate control male FATZO mice fed with a control diet (n=6, Purina #5008; fat 17% kcal, protein 27% kcal, carbohydrate 56% kcal) and sterile water were set up for control purpose. Mice were housed in plastic cages with microisolator. Sterilized bedding was replaced once a week. Mice were housed three per cage and maintained on a twelve hour light cycle throughout study duration. Room temperature was monitored daily and maintained at 22-25° C. Body weight was recorded every week during the induction phase. […]
(§2) […], […]+G, LRQNAC, OCA and Vehicle were administered by oral gavage at a volume of 10 mL/kg throughout the study. Dosages were calculated by daily body weight. […]
The livers were evaluated using the NASH liver criteria for scoring. In this mouse study, one cross section of liver for each case was analyzed with the NASH score system. […] The NAS can range from 0 to 8 and is calculated by the sum of scores of steatosis (0-3), lobular inflammation (0-3) and hepatocyte ballooning (0-2) from H&E stained sections. Fibrosis was scored (0-4) from picrosirius red stained slides. […]

FATZO mouse model [2] = experiment: Liver Oil Red O staining area in FATZO mice on WDF, Example 5; conditions: oral, 4 weeks, LIVRQNAC + G 3885 mg/kg, LRQNAC 2469 mg/kg, OCA 30 mg/kg/day
Description: as §1, §2
Aperio Automatic Image Quantitation was employed to quantify positive pixels of immunohistochemical staining, Oil-Red 0, and Sirius Red staining. The Positive Pixel Count algorithm was used to quantify the percentage of a specific stain present in a scanned slide image. A range of color (range of hues and saturation) and three intensity ranges (weak, positive, and strong) were masked and evaluated. […]

FATZO mouse model [3] = experiment: Blood glucose in FATZO mice on WDF, Example 5; conditions: oral gavage 4 weeks, LIVRQNAC 3000 mg/kg, LIVRQNAC+G 3,885 mg/kg, LRQNAC 2,469 mg/kg BID, OCA QD
Description: (§3) NASH was induced in 60 male FATZO mice by a western diet (Research Diet #D12079B; fat 40% kcal, protein 17% kcal, carbohydrate 43% kcal) supplemented with 500 fructose in the drinking water (WDF) during a 16 week induction phase. Diets and water were available ad libitum. Littermate control male FATZO mice fed with a control diet (n=6, Purina #5008; fat 17% kcal, protein 27% kcal, carbohydrate 56% kcal) and sterile water were set up for control purpose. Mice were housed in plastic cages with microisolator. Sterilized bedding was replaced once a week. Mice were housed three per cage and maintained on a twelve hour light cycle throughout study duration. Room temperature was monitored daily and maintained at 22-25° C. Body weight was recorded every week during the induction phase.
Following 16 weeks diet induction, 6 mice remained on control diet (group 1, Control) while 60 induced mice were randomized on body weight and plasma glucose (fed) for assignment to the following treatments. FATZO mice were administered with test articles starting at 16 weeks post western diet NASH induction for 4 weeks. […]
as §2
(§4) The viability, clinical signs and behavior were monitored daily. Body weight was recorded daily during the dosing period. […]

FATZO mouse model [4] = experiment: Liver triglyceride and cholesterol content in FATZO mice on WDF, Example 5; conditions: 4 weeks
Description: as §3
Following 16 weeks diet induction, 6 mice remained on control diet (group 1, Control) while 60 induced mice were randomized on body weight and plasma glucose (fed) for assignment to the following treatments. FATZO mice were administered with test articles starting at 16 weeks post western diet NASH induction for 4 weeks. Test articles were administered by oral gavage. Animals were euthanized at 20 weeks post western diet NASH induction, and tissues were harvested for analysis.
[…], […]+G, LRQNAC, OCA and Vehicle were administered by oral gavage at a volume of 10 mL/kg throughout the study. Dosages were calculated by daily body weight. […], […]+G, LRQNAC, and Vehicle were administered twice per day (BID), while OCA was administered once a day (QD) in the morning. Mice receiving OCA once per day (QD), and one vehicle QD. Doses were administered by oral gavage at 0700 and 1800 by oral gavage for 4 weeks.
Liver triglyceride and cholesterol content were similarly elevated after WDF feeding compared to vehicle treated animals fed control diet (liver triglyceridep<00.0040; liver cholesterol: p<0.0001). Among animals fed WDF, there were no significant differences in liver triglyceride (p<0.1206) when compared to vehicle for any treatment group. […]

FATZO mouse model [5] = experiment: Body weight, liver weight and clinical observations in FATZO mice on WDF, Example 5; conditions: oral gavage 4 weeks, LIVRQNAC 3000 mg/kg, LIVRQNAC+G 3,885 mg/kg, LRQNAC 2,469 mg/kg BID, OCA QD
Description: as §1, §2, §4
Animals were anesthetized with CO2 inhalation and exsanguinated via cardiac puncture for euthanasia. […] Organ weights (total liver, gonadal fat pads) were recorded. […]

[6] = oral, LIVRQNAC + G 3885 mg/kg, LRQNAC 2469 mg/kg, OCA 30 mg/kg/day

With `CC[C@H]1[C@@H](O)[C@@H]2[C@H](CC[C@]3(C)[C@@H]([C@H](C)CCC(=O)O)CC[C@@H]23)[C@@]2(C)CC[C@@H](O)C[C@@H]12` [OCA, 6α-ethyl-chenodeoxycholic acid] the “Fibrosis (score)” value (FATZO mouse model [1]) was 0.67 ± 0.167, the “Sirius Red (collagen staining)” value (FATZO mouse model [1]) was 1.59 ± 0.36 and the “Oil Red O (staining area)” value (FATZO mouse model [2]) was 0.24 ± 0.021. The “Average blood glucose over the dosing period” value (FATZO mouse model [3]) was 169.7 ± 6.3 mg/dL, the “Reduction of liver cholesterol content compared to vehicle” value (FATZO mouse model [4]) was 32% and the “Liver Cholesterol” value (FATZO mouse model [4]; [6]) was 5.63 ± 0.495. The “Liver Triglyceride” value (FATZO mouse model [4]; [6]) was 49.81 ± 1.63 and the “Liver weight (% body weight)” value (FATZO mouse model [5]) was 6.81±0.2 % body weight.
